We go through one compound from patent US20160324884A1, “TREATMENT OF DIABETES WITH PENTACYCLIC TRITERPENOID SAPONIN COMPOUNDS FROM SZECHUAN MELANDIUM ROOT” (priority 2013, published 2016).

Holding throughout (format): in vivo
The test system of assay [1] is KK^Ay mice. As to the kind of experiment: Effects of Wacao saponins on glycemia in KK^Ay T2DM mice (Example 2). From the text: 80 male KK^Ay mice (12 weeks of age, License NO. SCXK (BJ) 2009-0015, Beijing Huafukang Biology Technology Co. Ltd.) and 10 male normal C57BL/6 mice (12 weeks of age, License NO. SCXK (BJ) 2009-0015, Beijing Huafukang Biology Technology Co. Ltd.) were adaptively bred for one week, and then used in the pharmacological experiment.
The animals were housed individually in wood-chip-bedded plastic cages. Germ-free and high-fat diets (Beijing Huafukang Biology Technology Co. Ltd.) were used to feed the KK^Ay mice, and the standard laboratory chows were used to feed normal C57BL/6 mice. All the animals had free access to food and water.
80 KK^Ay mice were adaptively bred for 1 week, and then randomly assigned into 8 groups: Model group, Compound (1) group, Compound (2) group, Compound (3) group, Compound (4) group, Compound (7) group, Compound (8) group and metformin group, 10 mice per group. 10 normal C57BL/6 mice were used as the control group. KK^Ay mice were fed with the high-fat diet, and the control group was fed with the normal control diet. The control and model groups were hypodermically injected with sterile water, 6 medicated groups were hypodermically injected with 6 kinds of Wacao saponins, the Compounds (1), (2), (3), (4), (7) and (8), and the positive group (metformin group) was irrigated per oral. All groups were administrated at 9 am for 2 weeks. The administrating volume is 10 ml/kg BW and the administration dosage is shown in Table3.
All mice of the fasting tail blood glucose level were measured weekly using One Touch ULTRA Glucometer (Life Scan Johnson and Johnson, USA).
Each compound of Wacao saponins was dissolved into sterile water and sterilized with filtration for Sc. The metformin was dissolved into sterile water for lg. The control and model group mice were injected with sterile water, Sc. All the animals were treated at 9 am for 2 weeks.
Overnight fasting tail blood glucose level was measured weekly using One Touch ULTRA Glucometer and measured for twice.
Each group was administrated for 2 weeks (14 days) and then the experiment was terminated.
Results are expressed as means±SD. Statistical analysis were analyzed by using SPSS 10.0 software. Data were evaluated with analysis of variance.

In assay [2] the test system is KK^Ay mice. As to the kind of experiment: Glycemia in KK^Ay mice during treatment and after withdrawal (Example 3). From the text: (§1) 60 male KK^Ay mice (12 weeks of age, License NO. SCXK (BJ) 2009-0015, Beijing Huafukang Biology Technology Co. Ltd.) and 10 normal male C57BL/6 mice (12 weeks of age, License NO. SCXK (BJ) 2009-0015, Beijing Huafukang Biology Technology Co. Ltd.) were adaptively bred for one week, and then used in the following experiment.
(§2) 60 KK^Ay mice were adaptively bred for 1 week, and then randomly assigned into 6 groups: Model group, Compound (1) group, Compound (2) group, Compound (3) group, Compound (4) group, and metformin group, 10 mice per group. 10 normal C57BL/6 mice were used for the control group. KK^Ay mice were in a high-fat diet, and the control normal mice were in a normal control diet. The control and model groups were hypodermically injected with sterile water, the 6 medicated groups mice were subcutaneously injected with […] Wacao saponins, (Compounds (1), (2), (3) and (4)) respectively, and the positive group was administered metformin by gavage. All mice were administrated at 9 am for 2 weeks and the administration volume is 10 ml/kg BW.
(§3) Compound (1), (2), (3) and (4) were respectively dissolved into sterile water, and sterilized with filtration for Sc. to the medication groups. The metformin was dissolved into sterile water for lg. to the positive control group. Control and model groups animals were injected with sterile water (10 ml/kg BW), Sc. All the animals were treated daily at 9 am for 2 weeks (14 days).
Blood detection: Blood glucose was measured weekly. Overnight fasting glycemia level was measured with One Touch ULTRA Glucometer for the tail blood test. At the end of the experiment, blood serum was collected for measuring levels of fasting blood glucose and insulin, and the insulin sensitivity index (ISI) was calculated. At the same time, hepatic tissues and skeletal muscles of mice were taken out to determine levels of hepatic and muscle glycogen by detection kits.
Termination of the experiment After administrating mice for 2 weeks (14 days), the experiment was terminated.
This experiment is to observe the anti-hyperglycemia effects of Wacao saponins on KK^Ay mice during and after the period of drug treatment, respectively.

Assay [3] relates to KK^Ay mice. As to the kind of experiment: Body weight, food and water intake in KK^Ay mice (Example 3). To be noted: vs model group.
Excerpt: as §1
The animals were housed individually in wood-chip-bedded plastic cages. Germ-free and high-fat diets (Beijing Huafukang Biology Technology Co. Ltd.) were used to feed the KK^Ay mice. All the animals had free access to food and water.
as §2
The body weight, food and water intake of each mouse was measured and recorded weekly throughout the course of the experiment. At the end of the experiment, collected the blood and separated serum, fasting blood glucose, insulin levels and insulin sensitivity index (ISI) were measured or calculated in each group. Liver, skeletal muscles of mice in each group were taken and weighed for detecting glycogen levels of the hepatic and muscles after mice being killed.
as §3
Measurement of food and water intake: 24 hours' food and water intake were measured by gravimetry once a week. It should be paid attention to recycling leakage of small forage into the feed box to ensure the accuracy of food intake.
Determination of body weight: The body weight of mice was measured and recorded once a week.
Results are shown as means±SD. Statistical analysis data were analyzed by using SPSS 10.0 software. Data were evaluated with analysis of variance.

Turning to `CC(=O)OC1C(OC(=O)/C=C/c2ccc(C)cc2)C(C)OC(OC(=O)[C@]23CCC(C)(C)C[C@H]2C2C=C[C@@H]4[C@@]5(C)CC[C@H](OC6OC(C(=O)O)C(O)C(OC7OCC(O)C(O)C7O)C6OC6OC(CO)C(O)C(O)C6O)[C@@](C)(C=O)[C@@H]5CC[C@@]4(C)[C@]2(C)C[C@H]3O)C1OC1OC(C)C(O)C(O)C1O` (stereo partly shown) [Compound (1), sinocrassuloside VI], the “glycemia (fasting tail blood glucose), hypoglycemic activity” value in the assay with KK^Ay mice [1] (2.0 mg/kg BW Sc daily, after 1 week, vs model group) is listed as “best hypoglycemic activity”. Besides, the “anti-hyperglycemia effect, compounds compared with each other” value in the assay with KK^Ay mice [1] (2.0 mg/kg BW Sc, 2 weeks, ranking) is “strongest anti-hyperglycemia effect”. In addition, in the assay with KK^Ay mice [2] (KK^Ay mice, 2.0 mg/kg Sc, 2 weeks, comparison among compounds), the overall anti-diabetic effects entry is “best anti-diabetic effects”. For the same compound, the “duration of hypoglycemic effect compared with metformin” value with KK^Ay mice [2] (KK^Ay mice, after stopping medication) is given as “lasts longer than that of metformin”. The “descending rates of blood glucose” value in the assay on KK^Ay mice [2] (T2DM mice, 2 mg/kg, two weeks after subcutaneous injection) is on record as 70%. In the assay with KK^Ay mice [3] (2.0 mg/kg BW Sc, 2 weeks), the body weight growth result is reported as “best effect of resistance on body weight growth”. In addition, the food intake result in the assay with KK^Ay mice [3] (after 1 week, compounds 2.0 mg/kg Sc, metformin 500 mg/kg lg) is given as “decreased obviously”.
